Laboratory results as given in patent publication US8101658B2, “Nitric oxide donating prostamides” (Nicox S.A., priority 2008, dated 2012).
Where “and” joins values, the source holds several entries; their conditions need not be identical. Equal entries are not always repeated. Marks after values point to notes of the source that are not given here.

Key:
[1] = system: ocular normotensive dogs (Beagle); test: Intraocular pressure by pneumatonometry in ocular normotensive dogs; format: in vivo; settings: normotensive dog; for ΔΔEmax (difference in IOP compound-treated eye over vehicle-treated eye at time of maximum reduction): topical 50 μl drop to one eye in the evening, contralateral eye vehicle, dose equimolar to 0.03% Bimatoprost, n=8; for % Change from vehicle control (IOP): topical 50 μl drop to one eye, contralateral eye vehicle (set at 100%)
Experimental: (§1) Intraocular pressure was measured by pneumatonometry in ocular normotensive dogs (Beagle) and ocular hypertensive non human primates (for example, although dosing different here, see hypertensive primates described by Toris, C. B.; Zhan, G.-L.; Feilmeier, M. R.; Camras, C. B.; McLaughlin, M. A. J. Ocular Pharm. Ther. 2006, 22, 86-92). As described, only one eye is hypertensive in this primate model. Studies were performed in conscious animals (n=8/study) trained to accept pneumatonometry. The test compound and controls were formulated in a 10 mM citrate buffer vehicle at pH 5.5 with 0.5% Tween 80 and 0.02% benzalkonium chloride, and were administered in the evening. All test compounds were formulated at a dose equimolar to 0.03% Bimatoprost. Intraocular pressure was measured at −12 (baseline), 12 and 18 hours post treatment. Tetracaine hydrochloride (0.5%) was used to anesthetize the cornea when the intraocular pressure measurements were taken.
(§2) In the primate model, the hypertensive eye received 2×25 μl volume drops of the test compound. After a washout period of one week, the ocular hypertensive eye was then dosed with Bimatoprost (2×25 μl volume drops) as a control. The contralateral, normotensive eye was not treated in the study. In the normotensive dog model, the test compound was administered topically to one eye in a 50 μl volume drop. The contralateral eye received a 50 μl volume drop of blank vehicle or Bimatoprost (in the case of the head-to-head study only) to serve as a control. Students paired t test was used to compare treatment with test compound vs vehicle or Bimatoprost control for significant differences.
(§3) Tables 2 and 3 describe the intraocular pressure (IOP) changes that were seen following topical application of novel NO-prostamides in ocular hypertensive non-human primates and normotensive dogs. ΔEmax represents the maximal efficacy as compared to baseline (BL) values. ΔΔEmax reflects the difference in IOP from compound-treated eye over that seen for vehicle-treated eye at the timepoint wherein maximum IOP reduction for compound was seen. The percent change from vehicle control was the percentage change in IOP reduction conferred by compound over that for vehicle (set at 100%). Tmax represents the time point at which maximum IOP reduction of compound was observed.

[2] = system: ocular hypertensive non human primates; test: Intraocular pressure by pneumatonometry in ocular hypertensive primates; format: in vivo; settings: ocular hypertensive primate, hypertensive eye, topical 2×25 μl drops in the evening, dose equimolar to 0.03% Bimatoprost; for ΔEmax (maximal IOP efficacy as compared to baseline): IOP at 12 and 18 h, n=8
Experimental: as §1, §2, §3

## CCNC(=O)CCC/C=C\C[C@@H]1[C@@H](/C=C/[C@@H](O)CCc2ccccc2)[C@H](OC(=O)OCCCCO[N+](=O)[O-])C[C@@H]1O [Example G-1, (2R,3R)-3-[(2Z)-7-(Ethylamino)-7-oxohept-2-en-1-yl]-4-hydroxy-2-[(1E,3S)-3-hydroxy-5-phenylpent-1-en-1-yl]cyclopentyl 4-(Nitrooxy)butyl Carbonate]
[1]
  ΔΔEmax (difference in IOP compound-treated eye over vehicle-treated eye at time of maximum reduction): −3.8** mm H/g
  % Change from vehicle control (IOP): -20%

## CCNC(=O)CCC/C=C\C[C@@H]1[C@@H](/C=C/[C@@H](O)CCc2ccccc2)[C@H](O)C[C@@H]1O [Bimatoprost, reference compound]
[2]
  % change from Baseline (IOP): −13%
  ΔEmax (maximal IOP efficacy as compared to baseline): −4.8* mm Hg
[1]
  ΔΔEmax (difference in IOP compound-treated eye over vehicle-treated eye at time of maximum reduction): −4.0** mm H/g
  % Change from vehicle control (IOP): −16** %

## CCNC(=O)CCC/C=C\C[C@@H]1[C@@H](/C=C/[C@H](CCc2ccccc2)OC(=O)CCCO[N+](=O)[O-])[C@H](O)C[C@@H]1O [Example A-1, (1S,2E)-3-{(1R,2R,3S,5R)-2-[(2Z)-7-(Ethylamino)-7-oxohept-2-en-1-yl]-3,5-dihydroxycyclopentyl}-1-(2-phenylethyl)prop-2-en-1-yl 4-(Nitrooxy)butanoate]
[1]
  ΔΔEmax (difference in IOP compound-treated eye over vehicle-treated eye at time of maximum reduction): −3.6** mm H/g
  % Change from vehicle control (IOP): −20** %

## CCNC(=O)CCC/C=C\C[C@@H]1[C@@H](/C=C/[C@H](CCc2ccccc2)OC(=O)CCOCCOCCOCCO[N+](=O)[O-])[C@H](O)C[C@@H]1O [Example C-1, (1S,2E)-3-{(1R,2R,3S,5R)-2-[(2Z)-7-(Ethylamino)-7-oxohept-2-en-1-yl]-3,5-dihydroxycyclopentyl}-1-(2-phenylethyl)prop-2-en-1-yl 3-(2-{2-[2-(Nitrooxy)ethoxy]ethoxy}ethoxy)propanoate]
[1]
  ΔΔEmax (difference in IOP compound-treated eye over vehicle-treated eye at time of maximum reduction): −3.6** mm H/g
  % Change from vehicle control (IOP): -18%

## CCNC(=O)CCC/C=C\C[C@@H]1[C@@H](/C=C/[C@@H](O)CCc2ccccc2)[C@H](OC(=O)CCCCCO[N+](=O)[O-])C[C@@H]1O [Example F-1, (1R,2R,3R,4S)-3-[(2Z)-7-(Ethylamino)-7-oxohept-2-en-1-yl]-4-hydroxy-2-[(1E,3S)-3-hydroxy-5-phenylpent-1-en-1-yl]cyclopentyl 6-(Nitrooxy)hexanoate]
[1]
  ΔΔEmax (difference in IOP compound-treated eye over vehicle-treated eye at time of maximum reduction): −4.9** mm H/g
  % Change from vehicle control (IOP): −25** %

## CCNC(=O)CCC/C=C\C[C@@H]1[C@@H](/C=C/[C@H](CCc2ccccc2)OC(=O)CCCCCO[N+](=O)[O-])[C@H](O)C[C@@H]1O [Example B-1, (1S,2E)-3-{(1R,2R,3S,5R)-2-[(2Z)-7-(Ethylamino)-7-oxohept-2-en-1-yl]-3,5-dihydroxycyclopentyl}-1-(2-phenylethyl)prop-2-en-1-yl 6-(Nitrooxy)hexanoate]
[2]
  % change from Baseline (IOP): −24** %
  ΔEmax (maximal IOP efficacy as compared to baseline): −7.7** mm Hg
[1]
  % Change from vehicle control (IOP): −28** % and −34** %
